Laboratory results reported in US20240285627A1, “DRUG COMBINATION OF FAK INHIBITOR AND IMMUNOGENIC CELL DEATH INDUCER AND USE THEREOF” (INXMED (NANJING) CO., LTD., priority 2022, published 2024).

System: Mouse colon cancer CT26 cells
Assay: CT26 cells with IN10018 and Lurbinectedin: microscope and flow cytometry for CRT / Annexin V (Example 2)
Type: cell-based
Settings: CT26, 48 hours; IN10018 5 μM, Lurbinectedin 0.00142 μM
Experimental: Mouse colon cancer CT26 cells (Insitute of Biochemistry and Cell Biology) were cultured with RPMI-1640 (Shanghai Basalmedia, classification number: L210KJ, batch number: F210916)+10% FBS (Gibco, classification number: 10099-141c, batch number: 2158737cp) and passaged twice. When the cells were in good condition, the culture solution was placed in a 24-well plate. After the cells were spread for 24 hours, four groups were set up, wherein the first group was a control group, and the culture medium was added; the second group was IN10018 with a concentration of 5 μM; the third group was Lurbinectedin (DC chemicals, classification number: DC12502, batch number: DC1250203) with a concentration of 0.00142 μM; and the fourth group was IN10018 (5 μM) combined with Lurbinectedin (0.00142 μM). The drugs were mixed and the mixture was cultured in a 5% CO2 incubator at 37° C. for 48 hours.
After 48 hours of drug action, the cells were observed under a microscope and photographed, and the photos were kept. Then the cells were collected, subjected to flow analysis, and washed twice with flow buffer (PBS+2% FBS). 0.5 μl of AF647 anti-Calreticulin antibody (abcam, classification number: ab196159, batch number: CR33676773) was added to each well and fully mixed. […] The mixture was cultured at room temperature in the dark for 15 minutes, and then analyzed by flow cytometry.

## COc1cc(C(=O)NC2CCN(C)CC2)c(F)cc1Nc1ncc(C(F)(F)F)c(Oc2cccc3c2C(=O)N(C)C3)n1 [IN10018]
  cell state under a microscope: good
